Data from the NIST ThermoML archive (doi:10.1021/acs.jced.9b00313).
Numbers after ± are expanded uncertainties.

Key:
[1] = refractive index (Na D-line) (dimensionless); xn = mol fraction of the nth substance listed; conditions: 86.5 kPa, Liquid, Standard Abbe refractometry
[2] = xn = mol fraction of the nth substance listed; conditions: 86.5 kPa, Liquid; for viscosity: Capillary tube (Ostwald / Ubbelohde) method; for speed of sound: Frequency=3 MHz, Single path-length method; for mass density: Vibrating tube method

C[N+](C)(C)CCO.[Cl-] [choline chloride] + NCCO
Conditions | mass density, [2] [kg/m3] | refractive index, [1] | speed of sound, [2] [m/s] | viscosity, [2] [mPa·s]
288.15 K, x1 = 0.125 | 1090.06 ± 3.1 | 1.4905 ± 0.002 | 1989.5 ± 2.2 | 50.12 ± 1.2
288.15 K, x1 = 0.167 | 1091.28 ± 3.1 | 1.4934 ± 0.002 | 2006.1 ± 2.2 | 59.66 ± 1.4
293.15 K, x1 = 0.125 | 1086.89 ± 3.1 | 1.4884 ± 0.002 | 1977.8 ± 2.2 | 42.39 ± 1.1
293.15 K, x1 = 0.167 | 1088.11 ± 3.1 | 1.4913 ± 0.002 | 1994.5 ± 2.2 | 52.01 ± 1.4
298.15 K, x1 = 0.125 | 1083.96 ± 3.1 | 1.4862 ± 0.002 | 1965.3 ± 2.2 | 35.76 ± 0.89
298.15 K, x1 = 0.167 | 1085.18 ± 3.1 | 1.4891 ± 0.002 | 1982 ± 2.2 | 37.69 ± 0.95
303.15 K, x1 = 0.125 | 1081 ± 3.1 | 1.4844 ± 0.002 | 1953 ± 2.2 | 30.23 ± 0.77
303.15 K, x1 = 0.167 | 1082.22 ± 3.1 | 1.4873 ± 0.002 | 1970.7 ± 2.2 | 38.98 ± 0.82

C[N+](C)(C)CCO.[Cl-] [choline chloride] + OCCO
Conditions | mass density, [2] [kg/m3] | refractive index, [1] | speed of sound, [2] [m/s] | viscosity, [2] [mPa·s]
288.15 K, x1 = 0.125 | 1113.73 ± 3.1 | 1.467 ± 0.002 | 1919.5 ± 2 | 32.07 ± 0.9
288.15 K, x1 = 0.167 | 1115.91 ± 3.1 | 1.4732 ± 0.002 | 1931.8 ± 2 | 43.39 ± 1.1
293.15 K, x1 = 0.125 | 1111.87 ± 3.1 | 1.4649 ± 0.002 | 1907.5 ± 2 | 24.34 ± 0.76
293.15 K, x1 = 0.167 | 1113.09 ± 3.1 | 1.4711 ± 0.002 | 1920.1 ± 2 | 35.75 ± 0.93
298.15 K, x1 = 0.125 | 1109.07 ± 3.1 | 1.4628 ± 0.002 | 1895.2 ± 2 | 17.71 ± 0.61
298.15 K, x1 = 0.167 | 1110.23 ± 3.1 | 1.4687 ± 0.002 | 1908.6 ± 2 | 28.86 ± 0.79
303.15 K, x1 = 0.125 | 1106.16 ± 3.1 | 1.461 ± 0.002 | 1883.5 ± 2 | 12.19 ± 0.51
303.15 K, x1 = 0.167 | 1107.34 ± 3.1 | 1.4668 ± 0.002 | 1897.1 ± 2 | 22.72 ± 0.68

C[N+](C)(C)CCO.[Cl-] [choline chloride] + OCCOCCO
Conditions | mass density, [2] [kg/m3] | refractive index, [1] | speed of sound, [2] [m/s] | viscosity, [2] [mPa·s]
288.15 K, x1 = 0.125 | 1115.24 ± 3.1 | 1.4797 ± 0.002 | 1752.1 ± 2 | 110.12 ± 2.7
288.15 K, x1 = 0.167 | 1117.43 ± 3.1 | 1.4857 ± 0.002 | 1764.7 ± 2 | 125.8 ± 3.2
293.15 K, x1 = 0.125 | 1113.38 ± 3.1 | 1.4776 ± 0.002 | 1740.1 ± 2 | 102.39 ± 2.4
293.15 K, x1 = 0.167 | 1114.61 ± 3.1 | 1.4836 ± 0.002 | 1752.3 ± 2 | 118.16 ± 2.9
298.15 K, x1 = 0.125 | 1110.59 ± 3.1 | 1.4754 ± 0.002 | 1728.4 ± 2 | 95.76 ± 2.2
298.15 K, x1 = 0.167 | 1111.75 ± 3.1 | 1.4814 ± 0.002 | 1740.3 ± 2 | 111.27 ± 2.7
303.15 K, x1 = 0.125 | 1107.68 ± 3.1 | 1.4735 ± 0.002 | 1716.3 ± 2 | 90.23 ± 2
303.15 K, x1 = 0.167 | 1108.86 ± 3.1 | 1.4795 ± 0.002 | 1728.4 ± 2 | 105.11 ± 2.5

OCCNCCO [diethanolamine] + C[N+](C)(C)CCO.[Cl-]
Conditions | mass density, [2] [kg/m3] | refractive index, [1] | speed of sound, [2] [m/s] | viscosity, [2] [mPa·s]
288.15 K, x2 = 0.125 | 1102.46 ± 3.2 | 1.4892 ± 0.002 | 1826.4 ± 2.5 | 506.3 ± 21
288.15 K, x2 = 0.167 | 1104.58 ± 3.2 | 1.492 ± 0.002 | 1839 ± 2.5 | 528.22 ± 22
293.15 K, x2 = 0.125 | 1099.49 ± 3.2 | 1.4871 ± 0.002 | 1812.5 ± 2.5 | 498.57 ± 21
293.15 K, x2 = 0.167 | 1101.42 ± 3.2 | 1.4902 ± 0.002 | 1825.7 ± 2.5 | 520.58 ± 22
298.15 K, x2 = 0.125 | 1096.43 ± 3.1 | 1.485 ± 0.002 | 1798.8 ± 2.5 | 491.94 ± 20
298.15 K, x2 = 0.167 | 1098.48 ± 3.1 | 1.4877 ± 0.002 | 1811.7 ± 2.5 | 513.69 ± 21
303.15 K, x2 = 0.125 | 1092.86 ± 3.1 | 1.4831 ± 0.002 | 1784 ± 2.5 | 486.41 ± 20
303.15 K, x2 = 0.167 | 1095.52 ± 3.1 | 1.4861 ± 0.002 | 1799.1 ± 2.5 | 507.54 ± 21

OCCN(CCO)CCO [triethanolamine] + C[N+](C)(C)CCO.[Cl-]
Conditions | mass density, [2] [kg/m3] | refractive index, [1] | speed of sound, [2] [m/s] | viscosity, [2] [mPa·s]
288.15 K, x2 = 0.125 | 1124.87 ± 3.2 | 1.49 ± 0.002 | 1715.5 ± 2.2 | 522.91 ± 22
288.15 K, x2 = 0.167 | 1125.76 ± 3.2 | 1.4926 ± 0.002 | 1734.7 ± 2.2 | 552.67 ± 23
293.15 K, x2 = 0.125 | 1122.22 ± 3.2 | 1.4877 ± 0.002 | 1703.1 ± 2.2 | 515.18 ± 21
293.15 K, x2 = 0.167 | 1122.89 ± 3.2 | 1.4905 ± 0.002 | 1723.7 ± 2.2 | 545.03 ± 23
298.15 K, x2 = 0.125 | 1119.73 ± 3.2 | 1.4856 ± 0.002 | 1691.2 ± 2.2 | 508.55 ± 21
298.15 K, x2 = 0.167 | 1120.12 ± 3.2 | 1.4883 ± 0.002 | 1712.2 ± 2.2 | 538.14 ± 23
303.15 K, x2 = 0.125 | 1116.88 ± 3.1 | 1.4835 ± 0.002 | 1678.5 ± 2.2 | 503.02 ± 21
303.15 K, x2 = 0.167 | 1117.58 ± 3.1 | 1.4865 ± 0.002 | 1700.5 ± 2.2 | 531.99 ± 22

OCCOCCOCCO [triethylene glycol] + C[N+](C)(C)CCO.[Cl-]
Conditions | mass density, [2] [kg/m3] | refractive index, [1] | speed of sound, [2] [m/s] | viscosity, [2] [mPa·s]
288.15 K, x2 = 0.125 | 1118.76 ± 3.2 | 1.492 ± 0.002 | 1641.2 ± 2.2 | 144.03 ± 3.9
288.15 K, x2 = 0.167 | 1120.95 ± 3.2 | 1.498 ± 0.002 | 1660.5 ± 2.2 | 160.22 ± 4.4
293.15 K, x2 = 0.125 | 1116.27 ± 3.1 | 1.4912 ± 0.002 | 1629.7 ± 2.2 | 136.3 ± 3.6
293.15 K, x2 = 0.167 | 1118.12 ± 3.2 | 1.4971 ± 0.002 | 1648.4 ± 2.2 | 152.58 ± 4.2
298.15 K, x2 = 0.125 | 1113.74 ± 3.1 | 1.4887 ± 0.002 | 1617.8 ± 2.2 | 129.67 ± 3.3
298.15 K, x2 = 0.167 | 1115.27 ± 3.1 | 1.4947 ± 0.002 | 1636.8 ± 2.2 | 145.69 ± 3.9
303.15 K, x2 = 0.125 | 1111.2 ± 3.1 | 1.4872 ± 0.002 | 1605.8 ± 2.2 | 124.14 ± 3.1
303.15 K, x2 = 0.167 | 1112.38 ± 3.1 | 1.4928 ± 0.002 | 1624.9 ± 2.2 | 139.54 ± 3.7
